Experimental data as given in patent US8129361B2, “Amine compound and pharmaceutical use thereof” (Mitsubishi Tanabe Pharma Corporation, priority 2007, dated 2012).

Tests used:
Assay type in all cases: in vivo
[1] = tested on: peripheral blood lymphocyte number; test: Peripheral blood lymphocyte number decreasing action in rat; conditions: male F344 rats, oral, 24 hr after administration, read-out: ED50 (dose necessary for reducing the lymphocyte count of the vehicle group (100%) by 50%)
[2] = tested on: heart rate in rat; test: Action on heart rate in rat (telemetry, oral administration); conditions: male Crl:CD(SD) rats, up to the dose of 10 mg/kg body weight, measured to 24 hr after administration
Method: Action on Heart Rate in Rat
Male Crl:CD(SD) rats were anesthetized by intraperitoneal administration of Nembutal (manufactured by Dainippon Sumitomo Pharma Co., Ltd.), and a pressure sensor connected to a telemetry transmitter (TL11M2-C50-PTX, manufactured by Data Sciences International) was inserted into the abdominal aorta and a transmitter was subcutaneously placed in the abdomen. The blood pressure and heart rate data were recorded by an analysis software (Dataquest A.R.T., manufactured by Data Sciences International) via a receiver (RPC-1, manufactured by Data Sciences International). After confirmation of recovery of circadian rhythm of the heart rate, the rats were subjected to the experiment. The compound of the present invention was suspended in 0.5% hydroxypropylmethylcellulose (manufactured by Shin-Etsu Chemical Co., Ltd.) and orally administered. The heart rate was measured from 72 hr before the administration to 24 hr after the administration.

[3] = tested on: peripheral blood lymphocyte number; test: Peripheral blood lymphocyte number decreasing action in mouse; conditions: ip, male BALB/cAnNCrj mice, intraperitoneal, 24 hr after administration, read-out: ED50 (dose necessary for reducing the lymphocyte count of the vehicle group (100%) by 50%)

## C[C@](N)(CO)CCc1ccc(OCCCc2ccc(Cl)c(Cl)c2)c(C(F)(F)F)c1.Cl [Compound 204-1, (R)-2-amino-4-{4-[3-(3,4-dichlorophenyl)propoxy]-3-trifluoromethylphenyl}-2-methylbutanol hydrochloride]
[1]
  ED50: 0.03 mg/kg
[2]
  Effect on heart rate: did not reduce the heart rate
[3]
  ED50: 0.005 mg/kg
